Literature values as cited in patent US6818672B1, “Treating endometriosis or infertility, or improving fertility” (Columbia Laboratories, Inc., priority 1999, dated 2004).

Tests used:
[1] = test system: myometrial activity, uterine blood flow, lower abdominal pain
[2] = intravenous administration

Bioavailability (after oral administration, extensive first-pass sulphation): 15 and 20%
Decrease of bioavailability by concomitant food intake (oral administration with concomitant food intake): 30%
SMILES: CC(C)(C)NCC(O)c1cc(O)cc(O)c1 (centres unmarked) [terbutaline, 5-[2-[(1,1-dimethylethyl)amino]-1-hydroxyethyl]-1,3-benzenediol]
Duration of effect of each spray ([1]; terbutaline inhalation, severe pain in essential dysmenorrhea): 1 h
Effect on myometrial activity, uterine blood flow and pain in dysmenorrhea ([1]; women with primary dysmenorrhea): inhibit myometrial activity, increase blood flow to the uterus, and relieve the pain
Adverse effects [2]: palpitations and peripheral tremors
